PMC6364417, “Kinase inhibitor library screening identifies synergistic drug combinations effective in sensitive and resistant melanoma cells” (Journal of Experimental & Clinical Cancer Research : CR, 2019)

Key:
Assay in all cases: Kinase inhibitor library screening, PrestoBlue cell viability, 1 or 10 μM, 72 h
[1] = system: 501Mel cells (parental); settings: 501Mel Parental, 72 h, in %
Outline: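 Readout: PrestoBlue signal on a monochromator plate reader, given as percent viability relative to untreated controls. Parental and drug-resistant (Vemurafenib XP, Dabrafenib GP) sublines were tested; at least duplicates per line.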

[2] = system: 501Mel-GP cells (Dabrafenib-resistant); settings: 501Mel GP, 72 h, in %
[3] = system: 501Mel-XP cells (Vemurafenib-resistant); settings: 501Mel XP, 72 h, in %
[4] = system: A375 cells (parental); settings: A375 Parental, 72 h; for cell viability, A375 Parental, 1μΜ / cell viability, A375 Parental, 10μΜ: in %
[5] = system: A375-GP cells (Dabrafenib-resistant); settings: A375 GP, 72 h; for cell viability, A375 GP, 1μΜ / cell viability, A375 GP, 10μΜ: in %
[6] = system: A375-XP cells (Vemurafenib-resistant); settings: A375 XP, 72 h; for cell viability, A375 XP, 1μΜ / cell viability, A375 XP, 10μΜ: in %
[7] = system: IGR37 cells (parental); settings: IGR37 Parental, 72 h, in %
[8] = system: IGR37-GP cells (Dabrafenib-resistant); settings: IGR37 GP, 72 h; for cell viability, IGR37 GP, 1μΜ / Cell viability in kinase inhibitor library screening, IGR37 GP, 1μΜ: in %
[9] = system: IGR37-XP cells (Vemurafenib-resistant); settings: IGR37 XP, 72 h; for cell viability, IGR37 XP, 1μΜ / Cell viability in kinase inhibitor library screening, IGR37 XP, 1μΜ: in %

Cc1cnc(Nc2ccc(N3CCN(C)CC3)cc2)nc1Nc1cccc(S(=O)(=O)NC(C)(C)C)c1 [TG101209]
cell viability, 501Mel Parental, 10μΜ [1]: 0.6 | cell viability, 501Mel GP, 1μΜ ([2]; 1μΜ): 109.4 | cell viability, 501Mel GP, 10μΜ [2]: 1.7 | cell viability, 501Mel XP, 1μΜ [3]: 85.2 | cell viability, 501Mel XP, 10μΜ [3]: -0.127 | cell viability, A375 Parental, 1μΜ [4]: 87.8 | cell viability, A375 Parental, 10μΜ [4]: 11.9 | cell viability, A375 GP, 1μΜ [5]: 79.9 | cell viability, A375 GP, 10μΜ [5]: 14.4 | cell viability, A375 XP, 1μΜ [6]: 93.3 | cell viability, A375 XP, 10μΜ [6]: 13.1 | cell viability, IGR37 Parental, 1μΜ ([7]; 1μΜ): 97.5 | cell viability, IGR37 Parental, 10μΜ [7]: 6.5 | cell viability, IGR37 GP, 10μΜ [8]: 3.2% | cell viability, IGR37 GP, 1μΜ [8]: 98.5 | cell viability, IGR37 XP, 10μΜ [9]: 1.6% | cell viability, IGR37 XP, 1μΜ [9]: 82.7

Cc1cnc(Nc2ccc(OCCN3CCCC3)cc2)nc1Nc1cccc(S(=O)(=O)NC(C)(C)C)c1 [TG101348 (SAR302503)]
cell viability, 501Mel Parental, 1μΜ ([1]; 1μΜ): 98.7 | cell viability, 501Mel Parental, 10μΜ [1]: 1.4 | cell viability, 501Mel GP, 10μΜ [2]: 1.0 | cell viability, 501Mel XP, 1μΜ [3]: 89.8 | cell viability, 501Mel XP, 10μΜ [3]: -0.1 | cell viability, A375 Parental, 1μΜ [4]: 100.2 | cell viability, A375 Parental, 10μΜ [4]: 12.9 | cell viability, A375 GP, 1μΜ [5]: 89.1 | cell viability, A375 GP, 10μΜ [5]: 15.0 | cell viability, A375 XP, 1μΜ [6]: 99.7 | cell viability, A375 XP, 10μΜ [6]: 17.0 | cell viability, IGR37 Parental, 1μΜ ([7]; 1μΜ): 98.0 | cell viability, IGR37 Parental, 10μΜ [7]: 21.1 | cell viability, IGR37 GP, 10μΜ [8]: 6.2% | cell viability, IGR37 GP, 1μΜ [8]: 95.7 | cell viability, IGR37 XP, 10μΜ [9]: 2% | cell viability, IGR37 XP, 1μΜ [9]: 94.2

Nc1nc(N)c2nc(-c3cccc(O)c3)cnc2n1 [TG 100713]
Cell viability in kinase inhibitor library screening, 501Mel Parental, 1μΜ ([1]; 1μΜ): 94.5 | Cell viability in kinase inhibitor library screening, 501Mel Parental, 10μΜ [1]: 56.1 | Cell viability in kinase inhibitor library screening, 501Mel GP, 1μΜ ([2]; 1μΜ): 98.4 | Cell viability in kinase inhibitor library screening, 501Mel GP, 10μΜ [2]: 36.6 | Cell viability in kinase inhibitor library screening, 501Mel XP, 1μΜ [3]: 90.7 | Cell viability in kinase inhibitor library screening, 501Mel XP, 10μΜ [3]: 26.9 | Cell viability in kinase inhibitor library screening, A375 Parental, 10μΜ [4]: 43.8 | Cell viability in kinase inhibitor library screening, A375 Parental, 1μΜ [4]: 94.5 | Cell viability in kinase inhibitor library screening, A375 GP, 1μΜ [5]: 94.1 | Cell viability in kinase inhibitor library screening, A375 GP, 10μΜ [5]: 37.7 | Cell viability in kinase inhibitor library screening, A375 XP, 1μΜ [6]: 93.7 | Cell viability in kinase inhibitor library screening, A375 XP, 10μΜ [6]: 40.5 | Cell viability in kinase inhibitor library screening, IGR37 Parental, 10μΜ [7]: 49.5 | Cell viability in kinase inhibitor library screening, IGR37 GP, 10μΜ [8]: 58.8% | Cell viability in kinase inhibitor library screening, IGR37 GP, 1μΜ [8]: 93.1 | Cell viability in kinase inhibitor library screening, IGR37 XP, 10μΜ [9]: 21.2% | Cell viability in kinase inhibitor library screening, IGR37 XP, 1μΜ [9]: 97.8

Cc1cc(C(C)Nc2ccccc2)c2nc(N3CCOCC3)cc(=O)n2c1 (stereo not drawn) [TGX-221]
Cell viability in kinase inhibitor library screening, 501Mel Parental, 1μΜ ([1]; 1μΜ): 99.4 | Cell viability in kinase inhibitor library screening, 501Mel Parental, 10μΜ [1]: 97.1 | Cell viability in kinase inhibitor library screening, 501Mel GP, 1μΜ ([2]; 1μΜ): 102.9 | Cell viability in kinase inhibitor library screening, 501Mel GP, 10μΜ [2]: 78.5 | Cell viability in kinase inhibitor library screening, 501Mel XP, 1μΜ [3]: 92.5 | Cell viability in kinase inhibitor library screening, 501Mel XP, 10μΜ [3]: 67.8 | Cell viability in kinase inhibitor library screening, A375 Parental, 10μΜ [4]: 94.9 | Cell viability in kinase inhibitor library screening, A375 Parental, 1μΜ [4]: 103.0 | Cell viability in kinase inhibitor library screening, A375 GP, 1μΜ [5]: 95.9 | Cell viability in kinase inhibitor library screening, A375 GP, 10μΜ [5]: 91.3 | Cell viability in kinase inhibitor library screening, A375 XP, 1μΜ [6]: 107.8 | Cell viability in kinase inhibitor library screening, A375 XP, 10μΜ [6]: 99.8 | Cell viability in kinase inhibitor library screening, IGR37 Parental, 1μΜ ([7]; 1μΜ): 97.4 | Cell viability in kinase inhibitor library screening, IGR37 Parental, 10μΜ [7]: 96.6 | Cell viability in kinase inhibitor library screening, IGR37 GP, 10μΜ [8]: 85.9% | Cell viability in kinase inhibitor library screening, IGR37 GP, 1μΜ [8]: 93.0 | Cell viability in kinase inhibitor library screening, IGR37 XP, 10μΜ [9]: 61.6% | Cell viability in kinase inhibitor library screening, IGR37 XP, 1μΜ [9]: 95.0
